Laboratory results from the supplement of paper PMC10307832.

Columns and labels:
Assay in all cases: relative viability (nuclei count vs DMSO), 5 days (fraction); higher = more cells survive
[1] = tested on: HCC-15
How it was run: (§1)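 Five library-drug doses in √10 steps were combined with a fixed anchor-drug dose, or a single drug was given alone, by pin tool to lung cancer cell lines in 1536-well plates the day after seeding. Nuclei were stained and counted after 5 days. Relative viability is the nuclei count in treated wells over that in vehicle wells, taken as the median of duplicate plates.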

[2] = tested on: NCI-H2405
How it was run: as §1

[3] = tested on: LC-2-ad
How it was run: as §1

[4] = tested on: SW 900
How it was run: as §1

[5] = tested on: EPLC-272H
How it was run: as §1

[6] = tested on: NCI-H1944
How it was run: as §1

[7] = tested on: EMC-BAC-2
How it was run: as §1

[8] = tested on: ChaGo-K-1
How it was run: as §1

[9] = tested on: NCI-H23
How it was run: as §1

[10] = tested on: LK-2
How it was run: as §1

[11] = tested on: SW 1573
How it was run: as §1

[12] = tested on: NCI-H596
How it was run: as §1

[13] = tested on: NCI-H1792
How it was run: as §1

[14] = tested on: NCI-H1793
How it was run: as §1

[15] = tested on: RERF-LC-KJ
How it was run: as §1

[16] = tested on: NCI-H3122
How it was run: as §1

[17] = tested on: HCC-827
How it was run: as §1

[18] = tested on: LCLC-103H
How it was run: as §1

[19] = tested on: NCI-H2170
How it was run: as §1

[20] = tested on: EKVX
How it was run: as §1

[21] = tested on: H3255
How it was run: as §1

[22] = tested on: HARA
How it was run: as §1

`C=C1C(=O)O[C@@H](CCCCCCCC)[C@@H]1C(=O)O` [C-75] + Cc1nc(Nc2ncc(C(=O)Nc3c(C)cccc3Cl)s2)cc(N2CCN(CCO)CC2)n1 [Dasatinib] (partner 0.075 µM) was tested, and the relative viability ([1]; first compound 0.08 µM) was 0.644, the relative viability ([1]; first compound 0.253 µM) was 0.571 and the relative viability ([1]; first compound 0.8 µM) was 0.602. For the same molecule, the relative viability ([1]; first compound 2.53 µM) was 0.498, the relative viability ([1]; first compound 8 µM) was 0.528 and the relative viability ([2]; first compound 0.08 µM) was 0.196. It also gave a relative viability ([2]; first compound 0.253 µM) of 0.191, a relative viability ([2]; first compound 0.8 µM) of 0.188 and a relative viability ([2]; first compound 2.53 µM) of 0.216. The relative viability ([2]; first compound 8 µM) was 0.22, the relative viability ([3]; first compound 0.08 µM) was 0.491 and the relative viability ([3]; first compound 0.253 µM) was 0.521. For the same molecule, the relative viability ([3]; first compound 0.8 µM) was 0.468, the relative viability ([3]; first compound 2.53 µM) was 0.455 and the relative viability ([3]; first compound 8 µM) was 0.4. It also gave a relative viability ([4]; first compound 0.08 µM) of 0.531, a relative viability ([4]; first compound 0.253 µM) of 0.796 and a relative viability ([4]; first compound 0.8 µM) of 0.829. For the same molecule, the relative viability ([4]; first compound 2.53 µM) was 0.548, the relative viability ([4]; first compound 8 µM) was 0.449 and the relative viability ([5]; first compound 0.08 µM) was 0.412. The relative viability ([5]; first compound 0.253 µM) was 0.292, the relative viability ([5]; first compound 0.8 µM) was 0.351 and the relative viability ([5]; first compound 2.53 µM) was 0.33. It also gave a relative viability ([5]; first compound 8 µM) of 0.381, a relative viability ([6]; first compound 0.08 µM) of 0.234 and a relative viability ([6]; first compound 0.253 µM) of 0.169. For the same molecule, the relative viability ([6]; first compound 0.8 µM) was 0.193, the relative viability ([6]; first compound 8 µM) was 0.225 and the relative viability ([7]; first compound 0.08 µM) was 0.37. The relative viability ([7]; first compound 0.253 µM) was 0.313, the relative viability ([7]; first compound 0.8 µM) was 0.283 and the relative viability ([7]; first compound 2.53 µM) was 0.261. The relative viability ([7]; first compound 8 µM) was 0.276, the relative viability ([8]; first compound 0.08 µM) was 0.675 and the relative viability ([8]; first compound 0.253 µM) was 0.463. For the same molecule, the relative viability ([8]; first compound 0.8 µM) was 0.567, the relative viability ([8]; first compound 2.53 µM) was 0.393 and the relative viability ([8]; first compound 8 µM) was 0.593. It also gave a relative viability ([9]; first compound 0.08 µM) of 0.81, a relative viability ([9]; first compound 0.253 µM) of 0.756 and a relative viability ([9]; first compound 0.8 µM) of 0.718. The relative viability ([9]; first compound 2.53 µM) was 0.443, the relative viability ([9]; first compound 8 µM) was 0.586 and the relative viability ([10]; first compound 0.08 µM) was 0.388. For the same molecule, the relative viability ([10]; first compound 0.253 µM) was 0.433, the relative viability ([10]; first compound 0.8 µM) was 0.309 and the relative viability ([10]; first compound 2.53 µM) was 0.237. The relative viability ([10]; first compound 8 µM) was 0.291, the relative viability ([11]; first compound 0.08 µM) was 0.632 and the relative viability ([11]; first compound 0.253 µM) was 0.476. It also gave a relative viability ([11]; first compound 0.8 µM) of 0.291, a relative viability ([11]; first compound 2.53 µM) of 0.46 and a relative viability ([11]; first compound 8 µM) of 0.295. The relative viability ([12]; first compound 0.08 µM) was 0.764, the relative viability ([12]; first compound 0.253 µM) was 0.669 and the relative viability ([12]; first compound 0.8 µM) was 0.6. It also gave a relative viability ([12]; first compound 2.53 µM) of 0.446, a relative viability ([12]; first compound 8 µM) of 0.616 and a relative viability ([13]; first compound 0.08 µM) of 0.788. It also gave a relative viability ([13]; first compound 0.253 µM) of 0.623, a relative viability ([13]; first compound 0.8 µM) of 0.724 and a relative viability ([13]; first compound 2.53 µM) of 0.503. It also gave a relative viability ([13]; first compound 8 µM) of 0.692, a relative viability ([14]; first compound 0.08 µM) of 0.399 and a relative viability ([14]; first compound 0.253 µM) of 0.373. The relative viability ([14]; first compound 0.8 µM) was 0.32, the relative viability ([14]; first compound 2.53 µM) was 0.352 and the relative viability ([14]; first compound 8 µM) was 0.373. It also gave a relative viability ([15]; first compound 0.08 µM) of 0.917, a relative viability ([15]; first compound 0.253 µM) of 0.901 and a relative viability ([15]; first compound 0.8 µM) of 0.819. For the same molecule, the relative viability ([15]; first compound 2.53 µM) was 0.682, the relative viability ([15]; first compound 8 µM) was 0.798 and the relative viability ([16]; first compound 0.08 µM) was 0.832. It also gave a relative viability ([16]; first compound 0.253 µM) of 0.798, a relative viability ([16]; first compound 0.8 µM) of 0.583 and a relative viability ([16]; first compound 2.53 µM) of 0.594. The relative viability ([16]; first compound 8 µM) was 0.742, the relative viability ([17]; first compound 0.08 µM) was 0.28 and the relative viability ([17]; first compound 0.253 µM) was 0.356. For the same molecule, the relative viability ([17]; first compound 0.8 µM) was 0.301, the relative viability ([17]; first compound 2.53 µM) was 0.221 and the relative viability ([17]; first compound 8 µM) was 0.347. The relative viability ([18]; first compound 0.08 µM) was 0.445, the relative viability ([18]; first compound 0.253 µM) was 0.451 and the relative viability ([18]; first compound 0.8 µM) was 0.511. For the same molecule, the relative viability ([18]; first compound 2.53 µM) was 0.351, the relative viability ([18]; first compound 8 µM) was 0.524 and the relative viability ([19]; first compound 0.08 µM) was 0.692. It also gave a relative viability ([19]; first compound 0.253 µM) of 0.552, a relative viability ([19]; first compound 0.8 µM) of 0.552 and a relative viability ([19]; first compound 2.53 µM) of 0.476. For the same molecule, the relative viability ([19]; first compound 8 µM) was 0.522, the relative viability ([20]; first compound 0.08 µM) was 0.535 and the relative viability ([20]; first compound 0.253 µM) was 0.584. It also gave a relative viability ([20]; first compound 0.8 µM) of 0.564, a relative viability ([20]; first compound 8 µM) of 0.481 and a relative viability ([21]; first compound 0.08 µM) of 0.382. It also gave a relative viability ([21]; first compound 0.253 µM) of 0.371, a relative viability ([21]; first compound 0.8 µM) of 0.337 and a relative viability ([21]; first compound 2.53 µM) of 0.327. It also gave a relative viability ([21]; first compound 8 µM) of 0.437, a relative viability ([22]; first compound 0.08 µM) of 0.257 and a relative viability ([22]; first compound 0.253 µM) of 0.241. The relative viability ([22]; first compound 0.8 µM) was 0.239, the relative viability ([22]; first compound 2.53 µM) was 0.178 and the relative viability ([22]; first compound 8 µM) was 0.298.
